Experiments:
[1] = tested on: human cardiac fibroblast (HCF); assay: TGF-β1-induced activation of human cardiac fibroblasts (Western blot); format: cell-based; conditions: 10 μM co-treatment, 24 hours
Procedure: Cells were co-treated with various compounds (10 μM) and TGF-β1 for 24 hours. Following this, cell lysates were harvested, and the protein expression was assessed by Western blot analysis. FIG. 3D depicts the examination of TGF-β1-induced fibronectin deposition and α-SMA expression in HCF treated with 10 μM of DMSO, BTP2, WRG-28, or Av through immunofluorescence staining. The images were captured using a confocal microscope, the Olympus FV-1000. FIG. 3E, FIG. 3F, and FIG. 3G illustrate the assessment of CRAC channel activity in HCF, MRC5, and rat HSC-T6. These cells were pretreated with 10 μM of BTP2, WRG-28, or Av for 45 min. The evaluation included measuring the second peak of each calcium wave and the rate of entry. […]
Cell lysates were harvested in RIPA buffer (150 mM NaCl, 1 mM EGTA, 50 mM Tris pH 7.4, 10% glycerol, 1% Triton X-100, 1% sodium deoxycholate, 0.1% SDS, and protease inhibitor cocktail) and collected from culture dish with cell scrapers. […] The protein expression levels were assessed by specific primary antibodies, including antibodies against phosphotyrosine (clone 4G10; Millipore), DDR2 (R&D), α-SMA (Sigma), Collagen 1a1 (Boster), E-cadherin (BD Biosciences), SGLT2 (Proteintech), NHE1 (Novus) and β-actin (Clone C4, Millipore), followed by incubating with secondary antibodies conjugated with HRP and detected by ECL kit (Thermo Scientific). […]

NRK49F cells = assay: Collagen gel contraction assay; format: cell-based, rat; conditions: NRK49F in collagen gel, 10 ng/ml TGF-β1, 10 μM, 3 days, 8 hours after release
Procedure: FIG. 2A, FIG. 2B, FIG. 2C, FIG. 2D, FIG. 2E, FIG. 2F, FIG. 2G-1, and FIG. 2G-2 display how WRG-28 and Av suppress TGF-β1-induced fibroblasts activation and the differentiation of pericytes into myofibroblasts. […] Each bar represents the mean #SEM. […] The protein levels of collagen 1a1 and α-SMA were assessed using Western blot analysis under various conditions. […] Each bar represents mean±SEM. […] The images were acquired using a confocal microscope (Olympus, MPE). FIG. 2G-1 and FIG. 2G-2 display the measurement of angles between collagen fibers and the cell membrane, conducted using Image J. At least five different images from each condition were analyzed. Each bar represents mean±SEM. In all graphs, *, **, and *** represent p-value <0.05, 0.01, and 0.001, respectively. ‘ns’ denotes p-value >0.05, indicating no significant difference.
The collagen gel was made by mixing 3 ml rat tail collagen (Corning), 1 ml 5.7×DMEM, 500 μl 2.5% NaHCO3, 1 ml 0.1 M HEPES, 100 μl 0.17 M CaCl2, 100 μl 1 N NaOH, and 4.3 ml culture medium containing 2×10^6 NRK49F cells. 2 ml medium with or without 10 ng/ml TGF-β1 was applied onto gel in each well of 6 well-plate and cells were incubated for 3 days. After that gels were released from the culture plate and the gel area was quantified by Image J. […]

SMILES: Cc1nnsc1C(=O)Nc1ccc(-n2nc(C(F)(F)F)cc2C(F)(F)F)cc1 [BTP2]
- upregulation of α-SMA induced by TGF-β1 [1]: suppressed
- gel shrinkage (relative gel area) upon TGF-β1 stimulation (NRK49F cells): markedly reduced

SMILES: CCNS(=O)(=O)c1ccc(COc2ccc3nc4ccc(=O)cc-4oc3c2)cc1 [WRG-28]
- upregulation of α-SMA induced by TGF-β1 [1]: suppressed
- gel shrinkage (relative gel area) upon TGF-β1 stimulation (NRK49F cells): markedly reduced
